The source made the active and inactive calls.
What was measured:
[1] = HEp-2 cell cytotoxicity, dose response, cytotoxicity control for RSV inhibitor project, HTS (AID 2410); assay type: functional; conditions: human respiratory syncytial virus
Beta-galactosidase = Beta-galactosidase (Escherichia coli, UniProt Q8VNN2); assay: Dose response counterscreen for EBI2 assay utilizing the enzyme, b-galactosidase.; assay type: functional
[2] = target: Induced myeloid leukemia cell differentiation protein Mcl-1 (Homo sapiens, UniProt Q07820); assay type: functional
cells [3] = assay type: functional, cell-based
[4] = target: T1, Trace amine-associated receptor 1 (Homo sapiens, UniProt Q96RJ0); assay: Fluorescence-based cell-based high throughput dose response assay to identify agonists of the human trace amine associated receptor 1 (TAAR1).; assay type: functional
T1 sequence (Q96RJ0 whole entry): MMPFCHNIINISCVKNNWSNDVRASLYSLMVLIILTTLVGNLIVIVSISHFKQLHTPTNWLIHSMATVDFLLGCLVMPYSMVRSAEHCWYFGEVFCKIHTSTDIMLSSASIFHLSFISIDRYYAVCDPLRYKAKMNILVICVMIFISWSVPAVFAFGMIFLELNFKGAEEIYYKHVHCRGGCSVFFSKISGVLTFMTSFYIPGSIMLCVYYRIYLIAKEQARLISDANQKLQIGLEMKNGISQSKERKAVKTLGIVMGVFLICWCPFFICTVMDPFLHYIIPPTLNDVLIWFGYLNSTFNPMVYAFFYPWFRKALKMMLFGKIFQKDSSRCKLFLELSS

[5] = target: T1, Trace amine-associated receptor 1; assay: Counterscreen for agonists of the human trace amine associated receptor 1 (hTAAR1): Fluorescence-based cell-based high throughput dose response assay to identify hTAAR1 agonist that also desensitize TAAR1 receptor response.; assay type: functional
cells [6] = assay type: functional, cell-based; remark: listed apart in the source
[7] = target: T2, Fructose-bisphosphate aldolase (Mycobacterium tuberculosis, UniProt P9WQA3); assay: Fluorescence-based biochemical high throughput dose response assay for inhibitors of the fructose-bisphosphate aldolase (FBA) of M. tuberculosis.; assay type: functional
T2 sequence (P9WQA3 whole entry): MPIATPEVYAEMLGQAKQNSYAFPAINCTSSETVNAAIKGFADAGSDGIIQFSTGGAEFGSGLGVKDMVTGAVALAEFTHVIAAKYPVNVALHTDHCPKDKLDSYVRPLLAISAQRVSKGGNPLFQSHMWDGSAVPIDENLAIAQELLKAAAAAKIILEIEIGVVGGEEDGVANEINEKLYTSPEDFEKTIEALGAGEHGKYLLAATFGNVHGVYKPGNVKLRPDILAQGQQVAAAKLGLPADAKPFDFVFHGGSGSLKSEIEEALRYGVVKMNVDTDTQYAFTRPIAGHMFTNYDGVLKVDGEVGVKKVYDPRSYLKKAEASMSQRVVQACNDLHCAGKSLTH

[8] = AlphaScreen signal interference compounds, dose response, artefact control for ARNT-TACC3 interaction inhibitor project, biochemical, luminescence, cherry-pick (AID 651705); assay type: functional;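 further: AlphaScreen bead proximity signal that flags compounds interfering with the detection technology; potency reflects signal decrease which marks the compound as an assay artifact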
Caspase-3 [9] = target: T3, Caspase-3 (Homo sapiens, UniProt P42574); assay type: functional
T3 sequence (P42574 whole entry): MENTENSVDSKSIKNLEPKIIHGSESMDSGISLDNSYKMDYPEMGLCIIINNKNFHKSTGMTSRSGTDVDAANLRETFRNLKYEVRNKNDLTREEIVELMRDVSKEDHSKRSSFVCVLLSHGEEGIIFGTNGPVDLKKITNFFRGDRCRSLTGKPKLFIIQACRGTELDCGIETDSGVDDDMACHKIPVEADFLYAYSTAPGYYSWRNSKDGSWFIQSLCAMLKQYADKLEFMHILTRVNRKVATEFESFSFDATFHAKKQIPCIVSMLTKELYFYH

[10] = target: T4, Sentrin-specific protease 7 (Homo sapiens, UniProt Q9BQF6); assay type: functional;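 further: Luminescence-based dose-response confirmation of ultra-high-throughput screening hits, measuring inhibition of SENP7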
T4 sequence (Q9BQF6 whole entry): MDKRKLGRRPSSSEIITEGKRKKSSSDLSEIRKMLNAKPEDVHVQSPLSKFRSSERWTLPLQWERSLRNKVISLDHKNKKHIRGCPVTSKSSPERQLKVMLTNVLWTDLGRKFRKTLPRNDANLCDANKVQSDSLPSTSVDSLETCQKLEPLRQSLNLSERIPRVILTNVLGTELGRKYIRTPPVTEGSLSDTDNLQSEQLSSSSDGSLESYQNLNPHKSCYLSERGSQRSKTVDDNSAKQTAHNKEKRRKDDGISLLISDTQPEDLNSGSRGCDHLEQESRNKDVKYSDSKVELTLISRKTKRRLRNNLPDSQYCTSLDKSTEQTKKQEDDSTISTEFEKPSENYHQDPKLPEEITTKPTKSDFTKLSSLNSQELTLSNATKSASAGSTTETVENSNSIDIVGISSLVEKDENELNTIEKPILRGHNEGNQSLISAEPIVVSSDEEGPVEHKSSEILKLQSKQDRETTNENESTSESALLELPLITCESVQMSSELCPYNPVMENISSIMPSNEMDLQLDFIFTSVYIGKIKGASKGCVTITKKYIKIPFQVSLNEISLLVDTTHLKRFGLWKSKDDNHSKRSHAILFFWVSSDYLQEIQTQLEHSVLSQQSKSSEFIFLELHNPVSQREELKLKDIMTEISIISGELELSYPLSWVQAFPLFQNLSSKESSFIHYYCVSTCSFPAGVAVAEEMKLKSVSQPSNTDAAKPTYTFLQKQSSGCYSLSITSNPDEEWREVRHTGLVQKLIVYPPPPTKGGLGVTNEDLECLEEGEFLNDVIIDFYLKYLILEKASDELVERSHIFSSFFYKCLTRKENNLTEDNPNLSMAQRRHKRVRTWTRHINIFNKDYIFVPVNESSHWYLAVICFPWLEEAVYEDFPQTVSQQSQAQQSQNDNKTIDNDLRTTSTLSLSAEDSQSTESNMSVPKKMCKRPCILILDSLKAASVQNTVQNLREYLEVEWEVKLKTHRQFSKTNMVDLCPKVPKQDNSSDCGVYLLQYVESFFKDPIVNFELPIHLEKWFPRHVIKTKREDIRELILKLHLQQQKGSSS

[11] = target: T5, Sentrin-specific protease 6 (Homo sapiens, UniProt Q9GZR1); assay type: functional
T5 sequence (Q9GZR1 whole entry): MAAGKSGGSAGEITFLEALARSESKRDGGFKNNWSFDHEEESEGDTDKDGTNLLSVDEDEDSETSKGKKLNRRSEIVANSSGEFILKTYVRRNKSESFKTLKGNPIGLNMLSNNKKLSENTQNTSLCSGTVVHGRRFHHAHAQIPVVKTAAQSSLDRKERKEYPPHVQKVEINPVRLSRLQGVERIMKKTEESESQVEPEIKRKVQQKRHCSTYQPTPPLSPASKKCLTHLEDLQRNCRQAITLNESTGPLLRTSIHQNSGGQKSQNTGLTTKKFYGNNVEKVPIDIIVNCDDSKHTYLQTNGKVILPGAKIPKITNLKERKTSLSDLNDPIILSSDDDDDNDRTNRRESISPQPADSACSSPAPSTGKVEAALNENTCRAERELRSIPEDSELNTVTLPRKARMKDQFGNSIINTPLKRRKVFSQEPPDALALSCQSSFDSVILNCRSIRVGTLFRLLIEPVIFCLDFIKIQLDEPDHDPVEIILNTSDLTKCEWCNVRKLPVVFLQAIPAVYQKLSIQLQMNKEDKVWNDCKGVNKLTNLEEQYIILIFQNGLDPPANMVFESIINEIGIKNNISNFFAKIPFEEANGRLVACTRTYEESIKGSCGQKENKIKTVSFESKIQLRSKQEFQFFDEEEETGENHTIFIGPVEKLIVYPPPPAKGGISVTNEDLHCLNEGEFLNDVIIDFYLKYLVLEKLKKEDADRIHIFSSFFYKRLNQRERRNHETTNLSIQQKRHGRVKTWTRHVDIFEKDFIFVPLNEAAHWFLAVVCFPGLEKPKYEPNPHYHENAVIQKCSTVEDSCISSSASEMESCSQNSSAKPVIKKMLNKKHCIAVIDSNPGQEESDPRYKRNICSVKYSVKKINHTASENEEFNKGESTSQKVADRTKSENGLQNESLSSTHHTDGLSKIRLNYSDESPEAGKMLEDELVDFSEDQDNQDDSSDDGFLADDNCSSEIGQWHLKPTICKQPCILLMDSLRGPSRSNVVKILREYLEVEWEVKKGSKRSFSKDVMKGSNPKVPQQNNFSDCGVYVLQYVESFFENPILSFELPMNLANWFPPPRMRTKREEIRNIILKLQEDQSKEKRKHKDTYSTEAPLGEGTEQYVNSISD

[12] = target: T6, Sentrin-specific protease 8 (Homo sapiens, UniProt Q96LD8); assay type: functional;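 further: luminescence read-out of SENP8 inhibition, dose-response confirmation following an ultra-high-throughput screen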
T6 sequence (Q96LD8 whole entry): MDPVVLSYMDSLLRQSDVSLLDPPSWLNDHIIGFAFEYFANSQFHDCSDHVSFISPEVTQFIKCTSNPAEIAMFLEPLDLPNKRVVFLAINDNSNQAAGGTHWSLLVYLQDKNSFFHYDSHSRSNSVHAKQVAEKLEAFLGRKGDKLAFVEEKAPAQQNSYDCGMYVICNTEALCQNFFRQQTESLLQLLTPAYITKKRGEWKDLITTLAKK

Cysteine protease ATG4B = target: T7, Cysteine protease ATG4B (Homo sapiens, UniProt Q9Y4P1); assay type: functional;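 further: Fluorescence-based dose-response confirmation assay measuring inhibition of ATG4B activity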
T7 sequence (Q9Y4P1 whole entry): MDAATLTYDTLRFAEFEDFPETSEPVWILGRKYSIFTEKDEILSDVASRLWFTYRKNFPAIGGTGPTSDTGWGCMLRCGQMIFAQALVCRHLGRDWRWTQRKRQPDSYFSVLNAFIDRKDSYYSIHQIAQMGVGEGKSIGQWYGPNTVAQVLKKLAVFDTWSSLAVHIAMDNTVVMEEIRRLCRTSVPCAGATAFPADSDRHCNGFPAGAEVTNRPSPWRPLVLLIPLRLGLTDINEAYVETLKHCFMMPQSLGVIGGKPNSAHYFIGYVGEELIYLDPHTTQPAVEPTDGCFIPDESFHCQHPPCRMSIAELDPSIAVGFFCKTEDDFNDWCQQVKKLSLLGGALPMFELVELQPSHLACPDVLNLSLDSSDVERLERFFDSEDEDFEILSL

Phospholipase A2 = Phospholipase A2 (Homo sapiens, UniProt P04054); assay type: functional;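 further: confirmatory dose-response counterscreen on phospholipase A2, testing hits that came from an ultra-high-throughput screen for ATG4B inhibitors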
[13] = target: T6, Sentrin-specific protease 8; assay: SENP8 protease inhibitors, SAR follow-up, biochemical, luminescence (AID 504501); assay type: functional
Caspase-3 [14] = target: T3, Caspase-3; assay: SAR Analysis of small molecule inhibitors of Sentrin-specific proteases (SENPs) using a Caspase-3 Selectivity assay. [Related pubchem assays (depositor defined):AID2540, AID2599, AID434973, AID489001]; assay type: functional
[15] = target: T5, Sentrin-specific protease 6; assay: SAR Analysis of small molecule inhibitors of Sentrin-specific protease 6 (SENP6) using a Luminescent assay. [Related pubchem assays (depositor defined):AID2582, AID2599]; assay type: functional
[16] = target: T4, Sentrin-specific protease 7; assay: SENP7 protease inhibitors, SAR follow-up, biochemical, luminescence (AID 504497); assay type: functional
Nonstructural protein 1 = Nonstructural protein 1 (Influenza A virus, UniProt Q194T2); assay type: functional, Influenza A virus (A/California/07/2009(H1N1))
cells [17] = assay type: functional

Beta-galactosidase, sequence (Q8VNN2 whole entry): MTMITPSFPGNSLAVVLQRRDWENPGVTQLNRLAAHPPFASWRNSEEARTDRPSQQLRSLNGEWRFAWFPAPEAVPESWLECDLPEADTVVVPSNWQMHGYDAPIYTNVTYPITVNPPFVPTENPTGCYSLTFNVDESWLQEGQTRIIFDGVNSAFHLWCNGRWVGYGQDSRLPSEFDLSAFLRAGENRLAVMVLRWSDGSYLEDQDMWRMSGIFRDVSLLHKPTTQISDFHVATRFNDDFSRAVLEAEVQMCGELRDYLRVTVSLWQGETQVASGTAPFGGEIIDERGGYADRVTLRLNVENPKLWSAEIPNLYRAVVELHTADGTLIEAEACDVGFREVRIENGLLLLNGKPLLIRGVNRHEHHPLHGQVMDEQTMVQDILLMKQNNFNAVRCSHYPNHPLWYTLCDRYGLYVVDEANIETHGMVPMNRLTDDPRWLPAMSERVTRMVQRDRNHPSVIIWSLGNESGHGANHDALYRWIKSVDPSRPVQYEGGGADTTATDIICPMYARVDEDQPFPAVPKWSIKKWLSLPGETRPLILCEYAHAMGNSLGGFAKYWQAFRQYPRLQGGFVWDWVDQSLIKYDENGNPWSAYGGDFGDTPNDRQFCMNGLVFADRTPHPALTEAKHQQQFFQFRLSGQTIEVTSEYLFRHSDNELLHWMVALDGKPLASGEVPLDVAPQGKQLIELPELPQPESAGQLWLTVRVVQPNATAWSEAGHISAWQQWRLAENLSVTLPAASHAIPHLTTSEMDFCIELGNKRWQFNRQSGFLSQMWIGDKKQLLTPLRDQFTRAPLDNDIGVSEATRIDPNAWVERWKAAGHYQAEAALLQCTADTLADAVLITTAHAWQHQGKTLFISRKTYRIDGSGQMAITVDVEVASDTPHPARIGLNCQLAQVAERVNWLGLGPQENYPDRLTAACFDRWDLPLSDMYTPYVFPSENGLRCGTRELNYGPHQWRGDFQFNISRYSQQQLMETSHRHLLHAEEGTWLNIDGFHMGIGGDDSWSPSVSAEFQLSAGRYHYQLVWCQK
Nonstructural protein 1, sequence (Q194T2 whole entry): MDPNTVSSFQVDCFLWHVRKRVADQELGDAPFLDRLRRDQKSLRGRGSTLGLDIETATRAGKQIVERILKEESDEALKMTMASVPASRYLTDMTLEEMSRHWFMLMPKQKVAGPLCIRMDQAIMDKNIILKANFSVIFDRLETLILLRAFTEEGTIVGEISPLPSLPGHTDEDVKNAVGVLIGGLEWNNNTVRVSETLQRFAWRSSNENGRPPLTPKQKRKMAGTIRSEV
Induced myeloid leukemia cell differentiation protein Mcl-1, sequence (Q07820 whole entry): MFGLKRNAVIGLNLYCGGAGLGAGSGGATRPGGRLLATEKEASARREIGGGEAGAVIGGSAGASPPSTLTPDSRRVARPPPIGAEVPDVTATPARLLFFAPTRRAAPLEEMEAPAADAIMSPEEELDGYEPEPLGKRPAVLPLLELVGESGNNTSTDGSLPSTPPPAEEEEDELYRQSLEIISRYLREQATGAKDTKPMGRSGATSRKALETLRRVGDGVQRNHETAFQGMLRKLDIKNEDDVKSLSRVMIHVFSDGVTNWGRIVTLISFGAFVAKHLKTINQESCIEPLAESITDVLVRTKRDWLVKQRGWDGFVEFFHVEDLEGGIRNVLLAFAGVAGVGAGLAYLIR
Phospholipase A2, sequence (P04054 whole entry): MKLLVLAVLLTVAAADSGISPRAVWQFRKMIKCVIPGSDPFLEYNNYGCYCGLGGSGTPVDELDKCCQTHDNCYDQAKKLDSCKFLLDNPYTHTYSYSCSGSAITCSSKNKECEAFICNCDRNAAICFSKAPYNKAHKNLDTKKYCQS

## COc1ccc(C2=NN(C(=O)CSc3cn(C)c4ccccc34)C(c3ccc(OC)cc3)C2)cc1 (stereo unspecified)
[1]
  CC50: 30.2 µM (active)
Beta-galactosidase
  IC50: > 80 µM (inactive)

## N#Cc1c(O)ncc(/C=N/N=C/c2ccccc2)c1Nc1ccccc1
Beta-galactosidase
  IC50: > 80 µM (inactive)

## COc1cc(C(c2nnnn2C2CCCC2)N2CCc3ccccc3C2)ccc1O (stereo unspecified)
[2]
  IC50: 12.8 µM (active)
Cells [3]
  IC50: > 29.9 µM (inactive)
[4]
  EC50: 0.496 µM (active)
[5]
  IC50: 1.33 µM (active)
Cells [6]
  EC50: > 29.9 µM (inactive)

## CC(Oc1ccc2c(c1)oc(=O)c1ccccc12)C(=O)NCCCN1CCOCC1 (stereo unspecified)
[7]
  IC50: 1.5 µM (active)

## COc1cc(OC)c(C(=O)OCC(=O)Nc2nnc(-c3ccccc3)o2)cc1OC
[8]
  AC50: 112 µM (active)

## Cc1cc(=O)oc2cc(OCC(=O)N3CCCC3)ccc12
[7]
  IC50: 2.54 µM (active)

## O=C(NCCc1ccccc1)c1ccc([N+](=O)[O-])cc1
Cells [3]
  IC50: > 29.9 µM (inactive)
[4]
  EC50: 2.32 µM (active)
[5]
  IC50: 7.32 µM (active)
Cells [6]
  EC50: > 29.9 µM (inactive)

## COc1ccc2cc(C(N)=O)/c(=N/c3ccccc3)oc2c1
[7]
  IC50: > 10 µM (inactive)

## CC(C)(C)c1ccc2c(c1)C(=O)c1ccccc1C2=O
Caspase-3 [9]
  IC50: > 100 µM (inactive)
[10]
  IC50: > 100 µM (inactive)
[11]
  IC50: 4.05 µM (active)
[12]
  IC50: > 100 µM (inactive)
Cysteine protease ATG4B
  IC50: 9.47 µM (active)
Phospholipase A2
  IC50: 6.46 µM (active)
[13]
  IC50: 1.12 µM (active)
Caspase-3 [14]
  IC50: 0.934 µM (active)
[15]
  IC50: 0.927 µM (active)
[16]
  IC50: 0.635 µM (active)

## c1ccc(CNCCN2CCNCC2)nc1
Nonstructural protein 1
  IC50: 7.87 µM (active)
[8]
  AC50: 121 µM (active)

## O=C(c1cc2cc(Cl)ccc2[nH]1)N1CCN(c2ccccc2F)CC1
Beta-galactosidase
  IC50: > 80 µM (inactive)

## COc1ccc(C(=O)Nc2nnc(C3=COCCO3)o2)cc1
Cells [17]
  IC50: 5.45 µM (active)
[8]
  AC50: 107 µM (active)

From ChEMBL document CHEMBL1201862, “PubChem BioAssay data set” (2004)
